“And” between values parts separate entries of the source, which are not always exact repeats. Equal entries are not always repeated. Where two headings read alike, the source gives them in different places.
What was measured:
Tetranychus urticae = Tetranychus urticae - spray test, OP-resistant (bean leaf discs, 6 days); format: in vivo; conditions: after 6 days; for pest or weed control at 500 g/ha: Tetranychus urticae, foliar, 144 h, read-out: efficacy (spider mites killed)
Procedure, shortened: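 Bean leaf discs carrying all stages of OP-resistant Tetranychus urticae were sprayed with compound formulated in acetone/DMF and diluted in water with 1000 ppm emulsifier. Mortality was scored after 6 days as % efficacy, where 100% means all mites were killed.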

[1] = log P determination by HPLC on reversed-phase columns (C 18), analogous to OECD Guideline 117; format: physicochemical; conditions: for logP[a]: method [a]; for logP[b]: method [b]; for chromatographic logP: reversed-phase HPLC column (C 18)
Procedure, shortened: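 Reversed-phase C18 HPLC per OECD 117, two conditions: [a] pH 2.7, 0.1% formic acid water/acetonitrile, log P(HCOOH); [b] pH 7.8, 0.001 M ammonium hydrogencarbonate/acetonitrile, log P(neutral). Both use a 10–95% acetonitrile gradient; values are interpolated from retention times against C3–C16 unbranched alkan-2-ones.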

Boophilus microplus = Boophilus microplus - injection test; format: in vivo; conditions: 20 μg/animal, injection into engorged adult female cattle ticks, assessed after 7 days
Experimental: 1. Boophilus microplus—Injection Test
Solvent: dimethyl sulphoxide
To produce a suitable preparation of active compound, 10 mg of active compound are mixed with 0.5 ml of solvent and the concentrate is diluted with solvent to the desired concentration.
1 μl of the active compound solution is injected into the abdomen of 5 engorged adult female cattle ticks (Boophilus microplus). The animals are transferred into dishes and kept in a climate-controlled room.
Efficacy is assessed after 7 days by laying of fertile eggs. Eggs which are not visibly fertile are stored in a climate-controlled cabinet until the larvae hatch after about 42 days. An efficacy of 100% means that none of the ticks has laid any fertile eggs; 0% means that all the eggs are fertile.

Meloidogyne incognita = Meloidogyne incognita - test; format: in vivo; conditions: 20 ppm, lettuce, after 14 days
Experimental: 2. Meloidogyne incognita—Test Solvent: 125.0 parts by weight of acetone To produce a suitable preparation of active compound, 1 part by weight of active compound is mixed with the stated amount of solvent and the concentrate is diluted with water to the desired concentration. Vessels are filled with sand, active compound solution, an egg/larvae suspension of the southern root-knot nematode (Meloidogyne incognita) and lettuce seeds. The lettuce seeds germinate and the plants develop. The galls develop on the roots. After 14 days, the nematicidal efficacy in % is determined by the formation of galls. 100% means that no galls were found; 0% means that the number of galls on the treated plants corresponds to the untreated control.

[2] = pH 2.7, HPLC, acidic range, pH 2.7, 0.1% aqueous formic acid and acetonitrile, read-out: log P(HCOOH)
[3] = pH 2.7, method [a], read-out: logP[a]
[4] = pH 7.8, HPLC, neutral range, pH 7.8, 0.001 molar aqueous ammonium hydrogencarbonate and acetonitrile, read-out: log P(neutral)
[5] = pH 7.8, method [b], read-out: logP[b]

| logP[a] [1] | logP[b] [1] | chromatographic logP [1, 2] | chromatographic logP [1, 3] | chromatographic logP [1, 4] | chromatographic logP [1, 5] | SMILES | efficacy (spider mites killed) (Tetranychus urticae; 500 g/ha) | efficacy (laying of fertile eggs) (Boophilus microplus) [%] | nematicidal efficacy (formation of galls) (Meloidogyne incognita) [%] | efficacy (spider mites killed) (Tetranychus urticae; 100 g/ha) [%] | pest or weed control at 500 g/ha (Tetranychus urticae; 500 g/ha) [%] |
| --- | --- | --- | --- | --- | --- | --- | --- | --- | --- | --- | --- |
| 2.75 | 2.71 | – | – | – | – | Cc1cc(F)c(N2C(=O)C(C)N(C(=O)NCC(F)(F)F)C2=O)cc1[S+]([O-])CC(F)(F)F (mixture of isomers) [compound 88] | 100% | 100 | – | – | – |
| 3.10 | 3.02 | – | – | – | – | Cc1cc(F)c(N2C(=O)C(C)N(C(=O)NCC(C)C)C2=O)cc1[S+]([O-])CC(F)(F)F (mixture of isomers) [compound 89] | 100% | 100 | – | – | – |
| 2.19 | 2.13 | – | – | – | – | Cc1cc(F)c(N2C(=O)CN(C(=O)NCC3CCCO3)C2=O)cc1[S+]([O-])CC(F)(F)F (mixture of isomers) [compound 91] | 100% | 100 | – | – | – |
| 2.84 | 2.75 | – | – | – | – | Cc1cc(F)c(N2C(=O)CN(C(=O)NC(C)(C)C)C2=O)cc1[S+]([O-])CC(F)(F)F (racemic) [compound 68] | 100% | 100 | 90 | – | – |
| 3.01 | 2.92 | – | – | – | – | Cc1cc(C)c([S+]([O-])CC(F)(F)F)cc1N1C(=O)CN(C(=O)Nc2ccc(F)cc2)C1=O (racemic) [compound 99] | – | 100 | 90 | 90 | – |
| – | – | 3.07 | 3.07 | 2.98 | 2.98 | Cc1cc(F)c(N2C(=O)CN(C(=O)NC3CC3)C2=O)cc1SCC(F)(F)F [Ex. No. 1, N-Cyclopropyl-3-[2-fluoro-4-methyl-5-(2,2,2-trifluoroethylsulphanyl)phenyl]-2,4-dioxoimidazolidine-1-carboxamide] | – | 100 | 90 | – | 100 |
| – | – | 2.72 | 2.72 | 2.66 | 2.66 | Cc1cc(F)c(N2C(=O)CN(C(=O)NCC(C)C)C2=O)cc1[S+]([O-])CC(F)(F)F (stereo not shown) [Ex. No. 15, 3-[2-Fluoro-4-methyl-5-(2,2,2-trifluoroethylsulphinyl)phenyl]-N-isobutyl-2,4-dioxoimidazolidine-1-carboxamide] | – | 100 | – | – | 100 |
| – | – | 2.42 | 2.42 | 2.39 | 2.39 | CCNC(=O)N1C(=O)N(c2cc([S+]([O-])CC(F)(F)F)c(C)cc2F)C(=O)C1C (stereo not shown) [Ex. No. 27, N-Ethyl-3-[2-fluoro-4-methyl-5-(2,2,2-trifluoroethylsulphinyl)phenyl]-5-methyl-2,4-dioxoimidazolidine-1-carboxamide] | – | 100 | – | – | 100 |
| – | – | 2.61 | 2.58 | 2.58 | 2.62 | Cc1cc(F)c(N2C(=O)CN(C(=O)N3CCOCC3)C2=O)cc1SCC(F)(F)F [Ex. No. 122, 3-[2-Fluoro-4-methyl-5-(2,2,2-trifluoroethylsulphanyl)phenyl]-1-(morpholine-4-carbonyl)imidazolidine-2,4-dione] | – | – | 90 | – | 100 |
| – | – | 1.79 | 1.75 | 1.75 | 1.79 | Cc1cc(F)c(N2C(=O)CN(C(=O)N3CCOCC3)C2=O)cc1[S+]([O-])CC(F)(F)F (stereo not shown) [Ex. No. 125, 3-[2-Fluoro-4-methyl-5-(2,2,2-trifluoroethylsulphinyl)phenyl]-1-(morpholine-4-carbonyl)imidazolidine-2,4-dione] | – | – | 100 | – | 100 |
| 1.51 | 1.98 | – | – | – | – | Cc1cc(F)c(N2C(=O)CN(C(=O)Nc3cccnc3)C2=O)cc1[S+]([O-])CC(F)(F)F (stereo not shown) [compound 20] | 100% | – | 100 | – | – |
| 2.52 | 2.45 | – | – | – | – | Cc1cc(C)c([S+]([O-])CC(F)(F)F)cc1N1C(=O)CN(C(=O)NC(C)C)C1=O (stereo not shown) [compound 23] | – | 100 | 100 | – | – |
| 2.46 | 2.42 | – | – | – | – | Cc1cc(F)c(N2C(=O)C(C)N(C(=O)NC3CC3)C2=O)cc1[S+]([O-])CC(F)(F)F (stereo not shown) [compound 28] | 100% | 100 | – | – | – |
| 2.77 | 2.73 | – | – | – | – | Cc1cc(F)c(N2C(=O)C(C)N(C(=O)NC(C)C)C2=O)cc1[S+]([O-])CC(F)(F)F (stereo not shown) [compound 29] | 100% | 100 | – | – | – |
| 2.92 | 2.86 | – | – | – | – | Cc1cc(F)c(N2C(=O)CN(C(=O)Nc3ccc(F)cc3)C2=O)cc1[S+]([O-])CC(F)(F)F (stereo not shown) [compound 41] | 100% | 100 | – | – | – |
| 3.29 | 3.19 | – | – | – | – | Cc1cc(Cl)c(N2C(=O)CN(C(=O)NC3CC3)C2=O)cc1SCC(F)(F)F [compound 50] | 100% | – | 90 | – | – |
| 2.38 | 2.29 | – | – | – | – | Cc1cc(Cl)c(N2C(=O)CN(C(=O)NC3CC3)C2=O)cc1[S+]([O-])CC(F)(F)F (stereo not shown) [compound 62] | 100% | 100 | – | – | – |
| 2.66 | 2.58 | – | – | – | – | Cc1cc(Cl)c(N2C(=O)CN(C(=O)NCC(F)(F)F)C2=O)cc1[S+]([O-])CC(F)(F)F (stereo not shown) [compound 63] | 100% | 100 | – | – | – |
| 3.37 | 3.29 | – | – | – | – | Cc1cc(F)c(N2C(=O)CN(C(=O)Nc3ccccn3)C2=O)cc1SCC(F)(F)F [compound 78] | 100% | – | 100 | – | – |
| 3.25 | 3.26 | – | – | – | – | CCNC(=O)N1CC(=O)N(c2cc(SCC(F)(F)F)c(Cl)cc2Cl)C1=O [compound 103] | 90% | – | 90 | – | – |
| 4.09 | 4.20 | – | – | – | – | O=C(Nc1ccc(F)cc1)N1CC(=O)N(c2cc(SCC(F)(F)F)c(Cl)cc2Cl)C1=O [compound 108] | 100% | – | 90 | – | – |
| 2.99 | 3.03 | – | – | – | – | Cc1cc(F)c(N2C(=O)CN(C(=O)N(C)C3CC3)C2=O)cc1SCC(F)(F)F [compound 121] | 100% | – | 90 | – | – |
| 2.6 | 2.66 | – | – | – | – | Cc1cc(F)c(N2C(=O)CN(C(=O)N(C)CC(C)C)C2=O)cc1[S+]([O-])CC(F)(F)F (stereo not shown) [compound 126] | 100% | – | 100 | – | – |
| 3.27 | 3.29 | – | – | – | – | Cc1cc(F)c(N2C(=O)CN(C(=O)N3CCC(F)(F)CC3)C2=O)cc1SCC(F)(F)F [compound 129] | 100% | – | 100 | – | – |
| 2.58 | 2.60 | – | – | – | – | Cc1cc(F)c(N2C(=O)CN(C(=O)N(C)C)C2=O)cc1SCC(F)(F)F [compound 130] | 100% and 90% | – | 100 | – | – |
| 2.08 | 2.16 | – | – | – | – | Cc1cc(F)c(N2C(=O)CN(C(=O)N(C)C3CC3)C2=O)cc1[S+]([O-])CC(F)(F)F (stereo not shown) [compound 131] | 100% | – | 100 | – | – |
| 2.41 | 2.46 | – | – | – | – | Cc1cc(F)c(N2C(=O)CN(C(=O)N3CCC(F)(F)CC3)C2=O)cc1[S+]([O-])CC(F)(F)F (stereo not shown) [compound 132] | 90% | – | 100 | – | – |

Reference: patent US10206398B2, “Five-membered C-N-attached aryl sulphide and aryl sulphoxide derivatives as pesticides” (BAYER CROPSCIENCE AKTIENGESELLSCHAFT, priority 2014, dated 2019)
